From patent publication US11214803B2, “Modulators of YAP1 expression” (Ionis Pharmaceuticals, Inc., priority 2019, dated 2022)
Strand notation (5' to 3'): a small letter for the sugar, then the base; units joined by * are phosphorothioate-linked, units joined directly phosphodiester-linked; [ ] holds rarer units or linkages, { } end groups; capitals alone tell only the bases. e = 2'-O-(2-methoxyethyl) (MOE); k = constrained ethyl (cEt); [5mC] = 5-methylcytosine; d = 2'-deoxy (DNA); m = 2'-O-methyl

Test system: Yap1 mRNA
Test: Antisense inhibition of human Yap1 in SNU-449 cells by modified oligonucleotides, single dose (Example 5, RTS36584)
Format: cell-based
In short: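 Plate SNU-449 cells at 10,000 per well; add 2,000 nM modified oligonucleotide without transfection reagent; after ~48 h isolate RNA, run qRT-PCR with RTS36584, normalise to RIBOGREEN and report % UTC.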

[1] = Table 46, Yap1 mRNA as percent of untreated control, SNU-449 cells, single dose
[2] = Table 48, Yap1 mRNA level relative to untreated control, modified oligonucleotides targeting SEQ ID NO.: 1 and 2
[3] = Table 45, Yap1 mRNA as percent of untreated control, SNU-449 cells, single dose
[4] = Table 52, Yap1 mRNA, modified oligonucleotides targeting SEQ ID NO: 1 and 2
[5] = Table 51, Yap1 mRNA remaining as percent of untreated control (UT), SNU-449 cells, single dose
[6] = Table 39, SNU-449 cells, 10,000 cells per well, free uptake, 2,000 nM oligonucleotide, approx. 48 hours, RTS36584, normalized to RIBOGREEN, Yap1 mRNA relative to untreated control
[7] = Table 44 experiment, SNU-449 cells, 10,000 cells per well, free uptake, 2,000 nM, approximately 48 hours, RTS36584, Yap1 mRNA normalized to RIBOGREEN, relative to untreated control cells
[8] = Table 49, Yap1 mRNA level relative to untreated control, modified oligonucleotides targeting SEQ ID NO.: 1 and 2
[9] = Table 50, Yap1 mRNA remaining as percent of untreated control (UT), SNU-449 cells, single dose
[10] = Table 41, SNU-449 cells, 10,000 cells per well, free uptake, 2,000 nM modified oligonucleotide, approximately 48 hours, RTS36584, normalized to RIBOGREEN, Yap1 mRNA relative to untreated control cells
[11] = Table 40 (separate experiment), SNU-449 cells, 10,000 cells per well, free uptake, 2,000 nM oligonucleotide, approx. 48 hours, RTS36584, normalized to RIBOGREEN, Yap1 mRNA relative to untreated control
[12] = Yap1 mRNA, percent of untreated control, modified oligonucleotides targeting SEQ ID NO: 1 and 2, Table 47
[13] = Table 42 (separate experiment), SNU-449 cells, 10,000 cells per well, free uptake, 2,000 nM modified oligonucleotide, approximately 48 hours, RTS36584, normalized to RIBOGREEN, Yap1 mRNA relative to untreated control cells

1198830 (kA*k[5mC]*dT*dT*dT*dT*dA*d[5mC]*dA*dT*dT*kA*eG*kG*eA*kA) [Compound 1198830]
YAP1 (% UT) [1]: 37 % UT

1009395 (k[5mC]*kT*kG*dA*dG*dG*dT*dA*dT*dA*dA*d[5mC]*dT*kG*kG*kG; antisense) [Compound 1009395]
YAP1 (% UT) [2]: 43 % UT

1198954 (kT*kG*dT*dA*dA*dT*dA*dT*dT*dG*d[5mC]*kA*dA*kT*d[5mC]*kT; antisense) [Compound 1198954]
YAP1 (% UTC) [3]: 94 % UTC

1200828 (kA*kT*kA*dG*dT*mG*d[5mC]*dT*dT*dT*dG*dG*dA*kA*kG*kA; antisense) [Compound 1200828]
YAP1 (% UT) [4]: 54 % UT

1197301 (AGATUTAGGATGCATG; chemistry not fully specified) [Compound 1197301]
YAP1 (% UT) [5]: 71 % UT

1198382 (kT*dT*dA*dG*dA*dG*dT*dA*dT*dG*dT*kG*eG*k[5mC]*eA*kA; antisense) [Compound 1198382]
YAP1 (% UTC) [6]: 19 % UTC

1198511 (kA*k[5mC]*dT*d[5mC]*dT*dT*dA*dT*dA*dT*dG*eG*kT*eT*kT*eT; antisense) [Compound 1198511]
YAP1 (% UTC) [7]: 53 % UTC

1198822 (kT*kA*dT*dA*dA*d[5mC]*dT*dG*dG*dG*d[5mC]*kA*eA*kA*eT*kT; antisense) [Compound 1198822]
YAP1 (% UT) [1]: 97 % UT

1198361 (kT*kA*kA*dG*dG*dT*dT*dT*d[5mC]*d[5mC]*d[5mC]*dA*kG*eA*kT*eT; antisense) [Compound 1198361]
YAP1 (% UT) [8]: 39 % UT

1198607 (antisense kA*kT*kG*dT*dA*dA*dT*dA*dT*dT*dG*d[5mC]*kA*kA*kT*e[5mC]) [Compound 1198607]
YAP1 (% UT) [9]: 77 % UT

1198823 (kG*kG*dT*dA*dT*dA*dA*d[5mC]*dT*dG*dG*kG*e[5mC]*kA*eA*kA; antisense) [Compound 1198823]
YAP1 (% UT) [1]: 65 % UT

1198670 (antisense kT*kT*dA*dG*dG*dA*dT*dG*d[5mC]*dA*dT*dG*kG*eT*kT*eT) [Compound 1198670]
YAP1 (% UTC) [10]: 55 % UTC

1197258 (antisense kA*kT*kT*d[5mC]*mA*dG*dA*dT*dT*dT*dA*dG*dG*kA*kT*kG) [Compound 1197258]
YAP1 (% UT) [5]: 57 % UT

1198676 (antisense kT*k[5mC]*dA*dG*dA*dT*dT*dT*dA*dG*dG*dA*kT*eG*k[5mC]*eA) [Compound 1198676]
YAP1 (% UTC) [10]: 52 % UTC

1198282 (kA*kG*dA*d[5mC]*dT*dA*dA*dG*dT*dA*dA*eG*eG*eT*kT*kT; antisense) [Compound 1198282]
YAP1 (% UTC) (Table 43 experiment, SNU-449 cells, 10,000 cells per well, free uptake, 2,000 nM, approximately 48 hours, RTS36584, Yap1 mRNA normalized to RIBOGREEN, relative to untreated control cells): 58 % UTC

1198953 (kG*kT*dA*dA*dT*dA*dT*dT*dG*d[5mC]*dA*kA*dT*k[5mC]*dT*kG; antisense) [Compound 1198953]
YAP1 (% UTC) [3]: 58 % UTC

1198730 (kT*eA*kT*dA*dT*dT*dA*dG*dA*dG*dT*dA*eT*eG*kT*kG; antisense) [Compound 1198730]
YAP1 (% UTC) [11]: 57 % UTC

1198592 (antisense kA*kT*kA*dT*dG*dG*dT*dT*dT*dT*dG*dT*kG*kT*kG*eT) [Compound 1198592]
YAP1 (% UT) [9]: 50 % UT

1197225 (antisense kG*kA*k[5mC]*dT*dA*dA*dG*dT*dA*dA*dG*dG*dT*kT*kT*k[5mC]) [Compound 1197225]
YAP1 (% UT) [12]: 46 % UT

1198373 (kA*dA*dA*dT*dT*dG*dT*d[5mC]*dT*d[5mC]*dA*kT*eG*k[5mC]*e[5mC]*kT; antisense) [Compound 1198373]
YAP1 (% UTC) [6]: 40 % UTC

1198928 (kG*kT*dG*d[5mC]*dT*dT*dT*dG*dG*dA*dA*kG*dA*kT*d[5mC]*kT; antisense) [Compound 1198928]
YAP1 (% UTC) [3]: 28 % UTC

1200854 (kT*kA*kT*dG*dT*mA*dA*dT*dA*dT*dT*dG*d[5mC]*kA*kA*kT; antisense) [Compound 1200854]
YAP1 (% UT) [4]: 91 % UT

1197213 (antisense kT*kG*kT*dA*dT*dG*dT*d[5mC]*dA*dG*dA*dA*dG*kA*kG*kT) [Compound 1197213]
YAP1 (% UT) [2]: 5 % UT

1198234 (kG*k[5mC]*dT*dT*dT*dG*dG*dA*dA*dG*dA*eT*e[5mC]*eT*kG*kA) [Compound 1198234]
YAP1 (% UTC) [13]: 45 % UTC

1200849 (kA*kA*kT*dA*dT*mU*dG*d[5mC]*dA*dA*dT*d[5mC]*dT*kG*kT*k[5mC]; antisense) [Compound 1200849]
YAP1 (% UT) [4]: 53 % UT

1198720 (kT*eG*kG*dA*dA*dA*dT*dT*dG*dT*d[5mC]*dT*e[5mC]*eA*kT*kG; antisense) [Compound 1198720]
YAP1 (% UTC) [11]: 21 % UTC

1198575 (antisense kT*kT*kG*dG*dA*dA*dG*dA*dT*d[5mC]*dT*dG*kA*kA*kA*e[5mC]) [Compound 1198575]
YAP1 (% UT) [8]: 94 % UT

1198200 (kA*kA*dT*dT*dG*dT*d[5mC]*dT*d[5mC]*dA*dT*eG*e[5mC]*e[5mC]*kT*kT; antisense) [Compound 1198200]
YAP1 (% UTC) [13]: 49 % UTC

1198689 (antisense kA*kA*dT*dA*dT*dT*dG*d[5mC]*dA*dA*dT*d[5mC]*kT*eG*kT*e[5mC]) [Compound 1198689]
YAP1 (% UTC) [10]: 91 % UTC

1197306 (k[5mC]*kA*kA*d[5mC]*mU*d[5mC]*dT*dT*dA*dT*dA*dT*dG*kG*kT*kT; antisense) [Compound 1197306]
YAP1 (% UT) [5]: 77 % UT

1198905 (kA*kT*dA*dT*dT*dA*dG*dA*dG*dT*dA*kT*dG*kT*dG*kG; antisense) [Compound 1198905]
YAP1 (% UTC) [7]: 5 % UTC

1198665 (antisense kT*kG*d[5mC]*dT*dT*dT*dG*dG*dA*dA*dG*dA*kT*e[5mC]*kT*eG) [Compound 1198665]
YAP1 (% UTC) [10]: 38 % UTC

1198867 (kG*kT*dA*dA*dT*dA*dT*dT*dG*d[5mC]*dA*kA*eT*k[5mC]*eT*kG; antisense) [Compound 1198867]
YAP1 (% UT) [1]: 25 % UT

1197227 (antisense kT*kT*kA*dG*dA*d[5mC]*dT*dA*dA*dG*dT*dA*dA*kG*kG*kT) [Compound 1197227]
YAP1 (% UT) [12]: 64 % UT

1197278 (kG*kA*k[5mC]*dT*mA*dA*dG*dT*dA*dA*dG*dG*dT*kT*kT*k[5mC]) [Compound 1197278]
YAP1 (% UT) [5]: 36 % UT

1198583 (antisense kA*kG*kG*dA*dT*dG*d[5mC]*dA*dT*dG*dG*dT*kT*kT*kT*eT) [Compound 1198583]
YAP1 (% UT) [8]: 27 % UT

1198943 (kT*k[5mC]*dT*dT*dA*dT*dA*dT*dG*dG*dT*kT*dT*kT*dG*kT; antisense) [Compound 1198943]
YAP1 (% UTC) [3]: 31 % UTC

1198893 (kA*kA*dA*dT*dT*dG*dT*d[5mC]*dT*d[5mC]*dA*kT*dG*k[5mC]*d[5mC]*kT; antisense) [Compound 1198893]
YAP1 (% UTC) [3]: 58 % UTC

1198663 (antisense k[5mC]*kT*dT*dT*dG*dG*dA*dA*dG*dA*dT*d[5mC]*kT*eG*kA*eA) [Compound 1198663]
YAP1 (% UTC) [10]: 76 % UTC

1198753 (k[5mC]*eT*kT*dT*dG*dG*dA*dA*dG*dA*dT*d[5mC]*eT*eG*kA*kA; antisense) [Compound 1198753]
YAP1 (% UTC) [11]: 58 % UTC

1198698 (antisense kA*kA*dG*dT*dG*dT*dA*dT*dG*dT*d[5mC]*dA*kG*eA*kA*eG) [Compound 1198698]
YAP1 (% UTC) [13]: 12 % UTC

1198231 (kT*kT*dG*dG*dA*dA*dG*dA*dT*d[5mC]*dT*eG*eA*eA*kA*k[5mC]) [Compound 1198231]
YAP1 (% UTC) [13]: 73 % UTC
